The results in this text go back to US8536354B2, “Steroidal ligands and their use in gene switch modulation” (Intrexon Corporation, priority 2008, dated 2013).

For orientation: EC50 means the concentration that produces a half-maximal response.

Assay [1] deals with T1, wild-type Aedes aegypti EcR (AaEcR-DEF) (Aedes aegypti, UniProt P49880).
T1 sequence (P49880 405-776 limits assumed): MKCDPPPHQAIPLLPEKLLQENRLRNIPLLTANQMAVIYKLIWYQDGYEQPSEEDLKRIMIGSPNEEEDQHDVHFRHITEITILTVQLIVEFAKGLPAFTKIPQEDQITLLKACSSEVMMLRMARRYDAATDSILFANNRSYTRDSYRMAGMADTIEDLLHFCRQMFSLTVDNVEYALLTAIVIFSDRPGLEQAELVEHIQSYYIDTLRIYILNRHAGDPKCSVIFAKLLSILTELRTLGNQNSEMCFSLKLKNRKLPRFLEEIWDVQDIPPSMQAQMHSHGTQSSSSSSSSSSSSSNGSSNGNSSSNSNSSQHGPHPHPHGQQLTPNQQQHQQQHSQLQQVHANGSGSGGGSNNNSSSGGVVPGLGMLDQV
The assay can be described thus: Two-hybrid gene switch assay, AaEcR-DEF in NIH3T3 cells. The note with it: AaEcR; for rel max FI (20E), AA: max fold induction at any concentration relative to 20E; for rel max FI (PoA), AA: max fold induction at any concentration relative to PoA; for EC50: NIH3T3 cells, luciferase, 48 h, ligand 0.01-33 μM.

For assay [2], the target named is T2, wild-type Choristoneura fumiferana EcR (CfEcR-DEF) (Choristoneura fumiferana, UniProt O77255).
T2 sequence (O77255 219-541): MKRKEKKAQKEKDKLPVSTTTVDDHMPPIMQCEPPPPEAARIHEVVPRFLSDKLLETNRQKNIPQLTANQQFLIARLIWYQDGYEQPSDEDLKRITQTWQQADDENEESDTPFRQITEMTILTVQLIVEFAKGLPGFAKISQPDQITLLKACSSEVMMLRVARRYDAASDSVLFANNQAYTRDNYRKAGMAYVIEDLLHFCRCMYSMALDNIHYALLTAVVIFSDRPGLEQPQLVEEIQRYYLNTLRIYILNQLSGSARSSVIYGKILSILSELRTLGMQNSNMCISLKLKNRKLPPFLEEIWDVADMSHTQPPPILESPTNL
T2 sequence (P28702 299-449 partner): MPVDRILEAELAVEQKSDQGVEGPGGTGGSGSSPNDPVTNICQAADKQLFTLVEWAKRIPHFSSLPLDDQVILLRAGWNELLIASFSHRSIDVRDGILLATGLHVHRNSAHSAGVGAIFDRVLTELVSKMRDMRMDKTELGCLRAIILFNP
The assay can be described thus: Two-hybrid gene switch assay, wild-type CfEcR-DEF (GAL4-EcR / VP16-RXR-USP chimera, luciferase) in NIH3T3 cells. The note with it: for Emax: NIH3T3, 48 h.

For assay [3], the target named is T3, Amblyomma americanum EcR (AmaEcR-DEF) (Amblyomma americanum, UniProt O44338).
T3 sequence (O44338 291-570): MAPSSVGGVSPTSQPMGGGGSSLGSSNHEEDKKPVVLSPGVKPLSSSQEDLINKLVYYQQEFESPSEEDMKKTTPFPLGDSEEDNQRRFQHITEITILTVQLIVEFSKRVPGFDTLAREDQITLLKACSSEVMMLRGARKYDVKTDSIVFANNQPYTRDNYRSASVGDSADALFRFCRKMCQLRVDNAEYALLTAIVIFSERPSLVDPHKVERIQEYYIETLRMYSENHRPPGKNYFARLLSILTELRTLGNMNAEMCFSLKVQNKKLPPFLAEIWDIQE
T3 sequence (P28702 299-449 partner): T2 sequence (P28702 299-449 partner)
The assay can be described thus: Two-hybrid gene switch assay, AmaEcR-DEF in NIH3T3 cells. The note with it: for Emax: NIH3T3, 48 h.

The target in assay [4] is T4, Manduca sexta EcR (MsEcR) (Manduca sexta, UniProt P49883).
T4 sequence (P49883 293-531 limits assumed): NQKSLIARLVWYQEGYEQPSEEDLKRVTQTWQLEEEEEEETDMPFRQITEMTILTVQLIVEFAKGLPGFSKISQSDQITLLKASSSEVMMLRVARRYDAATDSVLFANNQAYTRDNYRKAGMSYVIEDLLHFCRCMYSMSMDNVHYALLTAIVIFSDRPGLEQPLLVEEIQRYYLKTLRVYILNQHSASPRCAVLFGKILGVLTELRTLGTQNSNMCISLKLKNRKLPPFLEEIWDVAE
The assay can be described thus: Two-hybrid gene switch assay, MsEcR-CDEF in NIH3T3 cells. The note with it: for rel max FI (20E), MS: max fold induction at any concentration relative to 20E; for rel max FI (PoA), MS: max fold induction at any concentration relative to PoA.

SMILES strings stand for the structures. Read-outs that look alike come from different tables or passages of the source. A value given as a limit tells only on which side of the number the result lay.

Consider `COC1C[C@H]2C(=O)C=C3[C@H](CC[C@]4(C)[C@@H]([C@@](C)(O)C(CCC(C)(C)O)OC)CC[C@@]34OC)[C@@]2(C)CC1OC` (stereo partly drawn) [20E-2,3,14,22-tetramethyl ether], for which the “rel max FI (20E), AA” value in assay [1] was found to be 0.07. Moreover, in assay [1], the “rel max FI (PoA), AA” value stood at 0.02. The EC50 is more than 33 µM in assay [1] (read-out: EC50 (μM), AA); more than 33 µM in assay [2] (read-out: EC50 (μM), CF, wild-type CfEcR, NIH3T3 cells, luciferase, 48 h, ligand 0.01-33 μM); more than 33 µM in assay [3] (read-out: EC50 (μM), AMA, AmaEcR, NIH3T3 cells, luciferase, 48 h, ligand 0.01-33 μM); more than 33 µM in assay [4] (read-out: EC50 (μM), MS, MsEcR, NIH3T3 cells, luciferase, 48 h, ligand 0.01-33 μM). For the same compound, in assay [2] (wild-type CfEcR, max fold induction at any concentration relative to 20E), the “rel max FI (20E), CF” value amounted to 0.46. Besides, the “rel max FI (PoA), CF” value in assay [2] (wild-type CfEcR, max fold induction at any concentration relative to PoA) is 0.00. In addition, in assay [3] (AmaEcR, max fold induction at any concentration relative to 20E), the “rel max FI (20E), AMA” value was 0.34. The “rel max FI (PoA), AMA” value in assay [3] (AmaEcR, max fold induction at any concentration relative to PoA) amounted to 0.26. In addition, the “rel max FI (20E), MS” value in assay [4] (MsEcR) was 0.00. The “rel max FI (PoA), MS” value in assay [4] (MsEcR) is 0.00.
Take `CO[C@H]1C[C@@]2(C)[C@@H](C[C@H]1O)C(=O)C=C1[C@@H]2CC[C@]2(C)[C@@H]([C@@](C)(O)[C@H](O)CCC(C)(C)O)CC[C@@]12O` [20E-2-methyl ether]: the “rel max FI (20E), AA” value in assay [1] is 0.87. The “rel max FI (PoA), AA” value in assay [1] was determined as 0.30. Further, the EC50 in assay [1] (EC50 (μM), AA) was approximately 10 µM; in assay [2] it was more than 33 µM; in assay [3], approximately 10 µM; in assay [4], approximately 20 µM. In addition, the Emax in assay [2] (read-out: rel max FI (20E), CF) amounted to 14%; in assay [2] (read-out: rel max FI (PoA), CF), 0%; in assay [3] (read-out: rel max FI (20E), AMA) it was 65%; in assay [3] (read-out: rel max FI (PoA), AMA), 50%. The “rel max FI (20E), MS” value in assay [4] (MsEcR) is reported as 0.16. Besides, the “rel max FI (PoA), MS” value in assay [4] (MsEcR) came to 0.10.
